Experimental data from PMC5234269 (Chemical communications (Cambridge, England), 2015).
Where “and” joins values, the source holds several entries; their conditions need not be identical. Identical values can stand only once. Like-named read-outs stand apart in the source and are kept apart here.

Tests used:
[1] = molecular target: D2R (Homo sapiens, UniProt P14416); type: binding
[2] = tested on: Tyr(7.43) to Cys mutant receptor; conditions: mutant vs wild type; cited from earlier work
[3] = molecular target: D3R (Homo sapiens, UniProt P35462); assay: Radioligand binding to D3R with and without Na+
Chain of D3R (P35462 whole entry): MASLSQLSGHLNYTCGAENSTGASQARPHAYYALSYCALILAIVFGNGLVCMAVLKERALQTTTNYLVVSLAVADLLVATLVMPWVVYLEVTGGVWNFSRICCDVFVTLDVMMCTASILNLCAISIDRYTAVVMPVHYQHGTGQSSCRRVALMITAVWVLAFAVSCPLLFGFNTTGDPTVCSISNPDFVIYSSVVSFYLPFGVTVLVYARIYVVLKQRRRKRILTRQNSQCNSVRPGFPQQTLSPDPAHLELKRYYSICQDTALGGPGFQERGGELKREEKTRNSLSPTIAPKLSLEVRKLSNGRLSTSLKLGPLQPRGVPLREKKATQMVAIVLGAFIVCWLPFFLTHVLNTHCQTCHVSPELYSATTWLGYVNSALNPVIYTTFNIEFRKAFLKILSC

Chain of D2R (P14416 whole entry): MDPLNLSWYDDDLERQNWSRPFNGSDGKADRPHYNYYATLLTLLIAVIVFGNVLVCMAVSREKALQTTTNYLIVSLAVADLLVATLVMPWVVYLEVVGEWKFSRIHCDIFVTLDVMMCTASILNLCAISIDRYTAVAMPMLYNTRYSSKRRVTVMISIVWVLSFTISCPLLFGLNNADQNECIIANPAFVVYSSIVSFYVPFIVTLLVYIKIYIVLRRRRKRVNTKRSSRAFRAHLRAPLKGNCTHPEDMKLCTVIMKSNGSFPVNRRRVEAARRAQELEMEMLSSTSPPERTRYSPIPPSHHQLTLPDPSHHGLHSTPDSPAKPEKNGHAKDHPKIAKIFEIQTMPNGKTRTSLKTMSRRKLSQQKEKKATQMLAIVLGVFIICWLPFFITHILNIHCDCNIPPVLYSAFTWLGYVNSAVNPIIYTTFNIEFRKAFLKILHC

## CN(C)CCOC1=Cc2ccccc2Sc2ccc(Cl)cc21 [zotepine]
[1]; +Na+ vs -Na+
  decrease of affinity for the D2R in the presence of Na+: ~ 7 fold

## O=C(CCCN1CCC2(CC1)C(=O)NCN2c1ccccc1)c1ccc(F)cc1 [spiperone]
[1]
  effect of presence or absence of Na+ on affinity for the D2R: does not affect

## CCN1CCCC1CNC(=O)c1cc(S(N)(=O)=O)ccc1OC (stereo not drawn) [sulpiride]
[1]; +Na+ vs -Na+
  increase of affinity for the D2R in the presence of Na+: ~ 23 fold
[2]
  decrease of binding by mutation of Tyr(7.43) to Cys: 185 fold
[3]; result in words, Fig. S2
  effect of Na+ on binding to the D3R: increased

## CN1CN(c2ccccc2)C2(CCN(CCCC(=O)c3ccc(F)cc3)CC2)C1=O [methylspiperone]
[2]
  decrease of binding by mutation of Tyr(7.43) to Cys: 3 fold

## CCc1cc(Cl)c(OC)c(C(=O)NC[C@@H]2CCCN2CC)c1O [eticlopride]
[1]
  increase of affinity for the D2R in the presence of Na+: ~ 3 fold
[1]; Ki
  Ki: 670 pM and 270 pM
[3]
  effect of Na+ on binding to the D3R: increased
